# Data taken from PubChem BioAssay AID328 (DTP/NCI, 2004).
# Several values for one entry are separate records, joined by “and”; a condition that tells them apart may be missing. Equal entries are not always repeated. Inconclusive results and toxic doses are left out.
# System: BDF1 mice, P388 leukemia ip, median survival T/C
# Experiment: NCI In Vivo Anticancer Drug Screen. Data for tumor model P388 Leukemia (intraperitoneal) in B6D2F1 (BDF1) mice
# Settings: endpoint: median survival time, higher = longer survival
# Procedure, shortened: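 Steps: implant the tumour, treat one group with compound and another with vehicle, record survival, then divide treated by control.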
# [1] = dose: 100.0 mg/kg/injection, schedule: Q01DX009 (ip), vehicle: saline with Tween-80
# [2] = dose: 100.0 mg/kg/injection, schedule: Q04DX003 (ip), vehicle: saline with Tween-80
# [3] = dose: 200.0 mg/kg/injection, schedule: Q01DX009 (ip), vehicle: saline with Tween-80
# [4] = dose: 200.0 mg/kg/injection, schedule: Q04DX003 (ip), vehicle: saline with Tween-80
# [5] = dose: 400.0 mg/kg/injection, schedule: Q01DX009 (ip), vehicle: saline with Tween-80
# [6] = dose: 400.0 mg/kg/injection, schedule: Q04DX003 (ip), vehicle: saline with Tween-80
# [7] = dose: 50.0 mg/kg/injection, schedule: Q01DX009 (ip), vehicle: saline with Tween-80
# [8] = dose: 50.0 mg/kg/injection, schedule: Q04DX003 (ip), vehicle: saline with Tween-80
# [9] = dose: 100.0 mg/kg/injection, schedule: Q01DX009 (ip), vehicle: Klucel (hydroxypropylcellulose) (HPC)
# [10] = dose: 200.0 mg/kg/injection, schedule: Q01DX009 (ip), vehicle: Klucel (hydroxypropylcellulose) (HPC)
structure (smiles),measurement,setting,value
CCOC(=O)C1CN(Cc2ccccc2)CCC1=O (stereo not given),T/C,"dose: 50.0 mg/kg/injection, schedule: Q01DX001 (ip), vehicle: saline",104 % of control
same,T/C,"dose: 100.0 mg/kg/injection, schedule: Q01DX001 (ip), vehicle: saline",95 % of control
same,T/C,"dose: 200.0 mg/kg/injection, schedule: Q01DX001 (ip), vehicle: saline",90 % of control
CN(C)Cc1ccc([N+](=O)[O-])cc1,T/C,"dose: 12.5 mg/kg/injection, schedule: Q01DX009 (ip), vehicle: saline",116 % of control
same,T/C,"dose: 25.0 mg/kg/injection, schedule: Q01DX009 (ip), vehicle: saline",119 % of control
same,T/C,"dose: 50.0 mg/kg/injection, schedule: Q01DX009 (ip), vehicle: saline",104 % of control
same,T/C,"dose: 50.0 mg/kg/injection, schedule: Q04DX003 (ip), vehicle: saline",107 % of control
same,T/C,"dose: 100.0 mg/kg/injection, schedule: Q04DX003 (ip), vehicle: saline",90 % of control
same,T/C,"dose: 200.0 mg/kg/injection, schedule: Q04DX003 (ip), vehicle: saline",107 % of control
CC1(C(=O)O)CCC(C(=O)Nc2ccccc2)C1(C)C (stereo not given),T/C,[1],92 % of control
same,T/C,[2],100 % of control
same,T/C,[3],92 % of control
same,T/C,[4],90 % of control
same,T/C,[5],92 % of control
same,T/C,[6],104 % of control
CC(C)C(=O)Nc1ccc(Cl)cc1,T/C,"dose: 100.0 mg/kg/injection, schedule: Q01DX001 (ip), vehicle: saline with Tween-80",100 % of control
same,T/C,"dose: 200.0 mg/kg/injection, schedule: Q01DX001 (ip), vehicle: saline with Tween-80",100 % of control
same,T/C,"dose: 400.0 mg/kg/injection, schedule: Q01DX001 (ip), vehicle: saline with Tween-80",100 % of control
CCCCCCCCCCC(=O)[O][Sn]([CH](C)C)([CH](C)C)[CH](C)C,T/C,"dose: 12.5 mg/kg/injection, schedule: Q01DX009 (ip), vehicle: saline + Tween-80 + alcohol",109 % of control
same,T/C,"dose: 25.0 mg/kg/injection, schedule: Q01DX009 (ip), vehicle: saline + Tween-80 + alcohol",119 % of control
Cc1ccc2c(c1)SSc1ccc(C)cc1SS2,T/C,[7],103 % of control
same,T/C,[1],109 % of control
same,T/C,[3],114 % of control
CC(Br)C(=O)NC(Cc1ccccc1)C(=O)O (stereo not given),T/C,"dose: 100.0 mg/kg/injection, schedule: Q01DX009 (ip), vehicle: saline",95 % of control
same,T/C,"dose: 100.0 mg/kg/injection, schedule: Q04DX003 (ip), vehicle: alcohol",100 % of control
same,T/C,[2],118 % of control
same,T/C,"dose: 200.0 mg/kg/injection, schedule: Q01DX009 (ip), vehicle: saline",100 % of control
same,T/C,"dose: 200.0 mg/kg/injection, schedule: Q04DX003 (ip), vehicle: alcohol",104 % of control
same,T/C,[4],100 % of control
same,T/C,"dose: 400.0 mg/kg/injection, schedule: Q01DX009 (ip), vehicle: saline",104 % of control
same,T/C,"dose: 400.0 mg/kg/injection, schedule: Q04DX003 (ip), vehicle: alcohol",109 % of control
same,T/C,[6],109 % of control
CCC(=O)O[C@H]1CC[C@H]2[C@@H]3CCC4=CC(=O)C[C@]4(C)[C@H]3CC[C@]12C,T/C,[7],100 % of control
same,T/C,[1],100 % of control
same,T/C,[2],110 % of control
same,T/C,[3],113 % of control
same,T/C,[4],105 % of control
CCCCN=C(N)c1ccc(NC(=O)c2ccc(C(=O)Nc3ccc(C(N)=NCCCC)cc3)cc2)cc1,T/C,"dose: 15.0 mg/kg/injection, schedule: Q04DX003 (ip), vehicle: saline with Tween-80",122 % of control
same,T/C,"dose: 26.0 mg/kg/injection, schedule: Q04DX003 (ip), vehicle: saline with Tween-80",154 % of control
same,T/C,"dose: 30.0 mg/kg/injection, schedule: Q01DX009 (ip), vehicle: saline with Tween-80",196 % of control
same,T/C,"dose: 30.0 mg/kg/injection, schedule: Q04DX003 (ip), vehicle: saline with Tween-80",158 % of control and 181 % of control
same,T/C,"dose: 40.0 mg/kg/injection, schedule: Q04DX003 (ip), vehicle: saline with Tween-80",166 % of control and 181 % of control
same,T/C,"dose: 45.0 mg/kg/injection, schedule: Q04DX003 (ip), vehicle: saline with Tween-80",179 % of control
same,T/C,"dose: 60.0 mg/kg/injection, schedule: Q04DX003 (ip), vehicle: saline with Tween-80",163 % of control and 183 % of control and 186 % of control
same,T/C,"dose: 90.0 mg/kg/injection, schedule: Q04DX003 (ip), vehicle: saline with Tween-80",204 % of control
C(=NCCN=Cc1c[nH]c2ccccc12)c1c[nH]c2ccccc12,T/C,[8],111 % of control
same,T/C,[1],88 % of control
same,T/C,[2],103 % of control
same,T/C,[3],92 % of control
same,T/C,[4],100 % of control
same,T/C,[5],103 % of control
O=C(O)O.[Mn],T/C,"dose: 100.0 mg/kg/injection, schedule: Q01DX010 (ip), vehicle: water",86 % of control and 93 % of control
same,T/C,"dose: 200.0 mg/kg/injection, schedule: Q01DX010 (ip), vehicle: water",91 % of control
same,T/C,"dose: 400.0 mg/kg/injection, schedule: Q01DX010 (ip), vehicle: water",77 % of control
same,T/C,"dose: 800.0 mg/kg/injection, schedule: Q01DX010 (ip), vehicle: water",83 % of control and 86 % of control
CC(=O)N(CC1CNc2nc(N)[nH]c(=O)c2N1C(=O)CCCCCCC(=O)N1c2c(nc(N)[nH]c2=O)NCC1CN(C(C)=O)c1ccc(C(=O)NC(CCC(=O)O)C(=O)O)cc1)c1ccc(C(=O)NC(CCC(=O)O)C(=O)O)cc1 (stereo not given),T/C,"dose: 50.0 mg/kg/injection, schedule: Q04DX003 (ip), vehicle: sodium bicarbonate",103 % of control
same,T/C,"dose: 100.0 mg/kg/injection, schedule: Q04DX003 (ip), vehicle: sodium bicarbonate",91 % of control
same,T/C,"dose: 200.0 mg/kg/injection, schedule: Q04DX003 (ip), vehicle: sodium bicarbonate",112 % of control
CCC(=O)/C(=C\c1ccccc1Cl)C(C)=O,T/C,[7],108 % of control
same,T/C,[1],116 % of control
same,T/C,[3],120 % of control
CCOC(=O)C1NC(=S)NCC1=O (stereo not given),T/C,[9],110 % of control
same,T/C,[10],110 % of control
C1CN1c1nc(N2CC2)nc(N2CC2)n1,T/C,"dose: 0.05 mg/kg/injection, schedule: Q01DX009 (ip), vehicle: saline",175 % of control
same,T/C,"dose: 0.1 mg/kg/injection, schedule: Q01DX009 (ip), vehicle: saline",115 % of control
same,T/C,"dose: 0.13 mg/kg/injection, schedule: Q01DX010 (ip), vehicle: saline",109 % of control
same,T/C,"dose: 0.25 mg/kg/injection, schedule: Q01DX010 (ip), vehicle: saline",150 % of control
same,T/C,"dose: 0.25 mg/kg/injection, schedule: Q01DX010 (ip), vehicle: water",190 % of control
same,T/C,"dose: 0.4 mg/kg/injection, schedule: Q01DX009 (ip), vehicle: saline",159 % of control
same,T/C,"dose: 0.5 mg/kg/injection, schedule: Q01DX009 (ip), vehicle: saline",200 % of control
same,T/C,"dose: 0.5 mg/kg/injection, schedule: Q01DX010 (ip), vehicle: saline",272 % of control
same,T/C,"dose: 0.5 mg/kg/injection, schedule: Q01DX010 (ip), vehicle: water",268 % of control
same,T/C,"dose: 0.75 mg/kg/injection, schedule: Q01DX010 (ip), vehicle: water",268 % of control
same,T/C,"dose: 0.8 mg/kg/injection, schedule: Q01DX009 (ip), vehicle: saline",86 % of control
COc1ccc(OC)c(C(=O)C=C(C(F)(F)F)C(F)(F)F)c1,T/C,"dose: 33.0 mg/kg/injection, schedule: Q01DX009 (ip), vehicle: other",109 % of control
same,T/C,"dose: 50.0 mg/kg/injection, schedule: Q01DX009 (ip), vehicle: other",113 % of control
same,T/C,"dose: 75.0 mg/kg/injection, schedule: Q01DX009 (ip), vehicle: other",122 % of control
CCCCCCCCO/N=C\c1c2c(O)c3c(O)c(C)c4c(c3c1O)C(=O)C(C)(O/C=C\C(OC)C(C)C(OC(C)=O)C(C)C(O)C(C)C(O)C(C)/C=C\C=C(\C)C(=O)N2)O4 (stereo not given),T/C,[9],100 % of control
same,T/C,[10],100 % of control
CC(=O)NCc1ccc([N+](=O)[O-])cc1,T/C,"dose: 25.0 mg/kg/injection, schedule: Q01DX009 (ip), vehicle: saline with Tween-80",103 % of control
same,T/C,"dose: 25.0 mg/kg/injection, schedule: Q04DX003 (ip), vehicle: saline with Tween-80",111 % of control
same,T/C,[7],103 % of control
same,T/C,[8],115 % of control
same,T/C,[1],100 % of control
same,T/C,[2],111 % of control
same,T/C,[3],119 % of control
same,T/C,[4],109 % of control
same,T/C,[5],95 % of control
same,T/C,[6],118 % of control
Nc1ccc(C(=O)O)cn1,T/C,"dose: 20.0 mg/kg/injection, schedule: Q01DX009 (ip), vehicle: saline",105 % of control
same,T/C,"dose: 40.0 mg/kg/injection, schedule: Q01DX009 (ip), vehicle: saline",98 % of control
same,T/C,"dose: 80.0 mg/kg/injection, schedule: Q01DX009 (ip), vehicle: saline",110 % of control
COc1ccc(N=Cc2cccs2)cc1,T/C,[1],119 % of control
same,T/C,[3],96 % of control
same,T/C,[5],100 % of control
